One assay deals with HIV-1. As to conditions: antiviral activity; cited from earlier work.
The subject of another assay is HIV-1NL4-3. As to the kind of experiment: Antiviral p24 assay in MT-4 cells, wild-type HIV-1NL4-3. In kind it is cell-based. As to conditions: wild-type HIV-1NL4-3, compared to DRV.
Assay [1] has as its system seven HIV-1 variants selected in vitro with SQV, APV, LPV, IDV, NFV, ATV, TPV. As to the kind of experiment: microbe, parasite or virus in culture. The class given is cell-based. The conditions noted are these: Human immunodeficiency virus 1, read-out: IC50 values, range over variants.

pEC50, pIC50: −log10 of the molar value.

On to `COc1ccc(S(=O)(=O)N(CC(C)C)C[C@@H](O)[C@H](Cc2ccccc2)NC(=O)O[C@H]2CO[C@H]3OCC[C@H]32)cc1` [Inhibitor 3], for which, in the assay on HIV-1, the pEC50 was 9.30.
Regarding `CC(C)CN(C[C@@H](O)[C@H](Cc1ccccc1)NC(=O)O[C@H]1C2CO[C@H]3OCC1C3C2)S(=O)(=O)c1ccc2nc(NC3CC3)sc2c1` (stereo partly drawn) [Inhibitor 5, (3S,7aS,8S)-Hexahydro-4H-3,5-methanofuro[2,3-b]pyran-8-yl ((2S,3R)-4-((2-(cyclopropylamino)-N-isobutylbenzo[d]thiazole)-6-sulfonamido)-3-hydroxy-1-phenylbutan-2-yl)carbamate], the “factor of more potent block of replication compared to DRV” value in the assay on HIV-1NL4-3 stood at 10. Also, in assay [1], the pIC50 was 9.57 to 11.59.

The pEC50 is −log10 of the EC50, conventionally taken in molar units. In general, pIC50 refers to the IC50 on a negative log10 scale, so that one unit is a factor of ten.

The values are drawn from publication PMC5605781 (Journal of medicinal chemistry, 2017).
